Measured values taken from patent US8148426B2, “Bis(thio-hydrazide amides) for increasing Hsp70 expression” (Synta Pharmaceuticals Corp., priority 2004, dated 2012).
Several values for one entry are separate records, joined by “and”; a condition that tells them apart may be missing. Identical values can stand only once. Like-named read-outs stand apart in the source and are kept apart here. Blank lines part the entries; values can stand above or below the compound they belong to.

Columns and labels:
[1] = Phase 1/2 study, safety (Example 12); type: in vivo, human
Protocol: Phase 1 (safety/PK/MTD (maximum tolerated dose) was followed by a Phase 2 randomized two arm portion. Two dose levels were evaluated in Phase 1.
Dosing was IV q 3 weeks for up to 6 cycles in the absence of dose-limiting toxicity or progression. […] The phase 2 primary endpoint is time to progression, with secondary endpoints of response rate, survival, and quality of life. Study pharmacodynamic parameters include NK cell activity and Hsp70 level.

Hsp70 [2] = assay: Phase I trial, Hsp70 in plasma before and after treatment (Example 11); type: in vivo, human
Protocol: (§1) Plasma Hsp70 was measured by a sandwich ELISA kit (Stressgen Bioreagents Victoria, British Columbia, CANADA) according to a modified protocol in house. In brief, Hsp70 in plasma specimens and serial concentrations of Hsp70 standard were captured onto 96-well plate on which anti-Hsp70 antibody was coated. Then captured Hsp70 was detected with a biotinylated anti-Hsp70 antibody followed by incubation with europium-conjugated streptavidin. After each incubation unbound materials were removed by washing. Finally, antibody-Hsp70 complex was measured by time resolved fluorometry of europium. Concentration of Hsp70 was calculated from a standard curve.

in vivo = assay: in vivo
Protocol: The compounds were prepared in two formulations: Formulation A contained 10% DMSO, and 18% Cremophor RH40 in water; Formulation B contained ethanol:Cremophor EL in a 1:1 ratio.
Blood samples were taken at 30 min, 1, 2, and 4 hr after injection. Brain tissue samples were taken after blood collected at 30 min, where one mouse from each group was selected and its brain was removed for analysis.
Blood samples were combined with 3-5 mg solid DTT, after which the sample was vortexed and centrifuged at 6,000 rpm×10 min. A 50 μL aliqot of plasma was taken, followed by the addition of 50 μL 1% DTT and 150 μL CH3CN (0.1% TFA). The mixture was vortexed and centrifuged at 10,000 rpm×5 min. The 150 μL supernatant was diluted with 150 μL water. A weighed tissue sample was homogenized in PBS (1:1), then combined with 1% DTT (1:1), followed by the addition of CH3CN containing 0.1% TFA (3:1). The mixture was vortexed and centrifuged at 10,000 rpm×5 min. The 150 μL supernatant was diluted with 150 μL water. 100 μL prepared samples were subjected to HPLC, using 5-95% CH3CN (0.1% trifluoroacetic acid) as the eluent.

K562/eGFP = assay: NK cell cytotoxic activity of patients' PBMC (Example 12); type: in vivo, human
From the text: The following procedure can be employed to assay NK cell activity in a subject. The procedure is adapted from Kantakamalakul W, Jaroenpool J, Pattanapanyasat K. A novel enhanced green fluorescent protein (EGFP)-K562 flow cytometric method for measuring natural killer (NK) cell cytotoxic activity. J Immunol Methods. 2003 Jan. 15; 272:189-197, the entire teachings of which are incorporated herein by reference.
K562 cells were transduced with retroviral vector which encode green fluorescent protein (eGFP). Stable cell line was selected with antibiotic, G418.
The subject's peripheral blood mononuclear cells (PBMCs) were prepared by clinical study sites and received in BD Vacutainer Cell Preparation Tube with sodium heparin (Product Number: 362753, Becton Dickinson, Franklin Lakes, N.J.).
Effector cells alone and target cells alone were used as controls. All tubes were incubated at 37° C. with 5% CO2 for about 3.5 hr. Ten microliters of propidium iodide (PI) at a concentration of 1 mg/mL was added t each tube including effector and target control tubes and then incubated at room temperature for 15 min.
Cytotoxic activity was analyzed with a FACSCalibur flow cytometer (Becton Dickinson). Linear amplification of the forward and side scatter (FSC/SSC) signals, as well as logarithmic amplification of eGFP and PI emission in green and red fluorescence were obtained. […]

Hsp70 [3] = assay: Plasma Hsp70 levels by ELISA in non-tumor-bearing mice (Example 3); type: in vivo; conditions: normal (non-tumor bearing) mice; 25 mg/kg intravenously 3 times a week; compared to vehicle
Protocol: as §1, with “Non-tumor-bearing mice were with either vehicle alone or compound (1). The vehicle employed was 10% DMSO, 18% Cremophor RH40. […] Plasma samples were prepared from tail bleed. Plasma Hsp70 levels were determined by Enzyme-Linked Immunosorbent Assay (ELISA). Plasma” for “Plasma”

[4] = Tissue distribution in SW female mice, intravenous (Example 1); type: in vivo; conditions: mouse
Protocol: Plasma samples were prepared by combining 50 μL plasma+50 μL 1% dithiothreitol (DTT)+150 μL CH3CN (0.1% HCOOH), centrifuged at 10,000 rpm×5 min; 150 μL supernatant+90 μL H2O. Tissue samples were prepared by homogenizing a weighed tissue sample in phosphor-buffered saline (PBS, ×1)+1% DTT (×1)+CH3CN (0.1% HCOOH) (×3)), centrifuged at 10,000 rpm×5 min; 150 μL supernatant+90 μL H2O. […] The running time was 15 min.

[5] = Phase I trial, plasma pharmacokinetics by LC/MS (Example 11); conditions: co-administered with Compound (1) 44-[…]^2
Protocol: Pharmacokinetic (PK) studies were performed during cycle 1 using liquid chromatography/mass spectrometry (LC/MS) to measure both compounds in plasma. Heat shock protein 70 (Hsp70) was measured in plasma before and after treatment.

[6] = in vivo

SMILES: CN(NC(=O)CC(=O)NN(C)C(=S)c1ccccc1)C(=S)c1ccccc1 [Compound (1)]
adverse effects (AEs), usually Grade 1-2 ([1]; Phase 1, 16 patients, with carboplatin and paclitaxel): arthralgia and myalgia, peripheral neuropathy, rash, nausea, and vomiting, fatigue, alopecia, edema, dehydration, constipation, and decreased blood counts
tolerability of the carboplatin:paclitaxel:Compound (1) combination ([1]; at the dose levels studied): well tolerated
Hsp70 concentrations, change (Hsp70 [2]; 175 mg/m2 Compound (1) + paclitaxel 175 mg/m2, two patients): more than doubled
percent increase in Hsp70 concentrations (Hsp70 [2]; 263 mg/m2 Compound (1) + paclitaxel 175 mg/m2, a third patient): more than 250%
Hsp70 concentrations, change (Hsp70 [2]; 263 mg/m2 Compound (1) + paclitaxel 175 mg/m2, two patients): roughly doubled
percent increase in Hsp70 concentrations (Hsp70 [2]; 350 mg/m2 Compound (1) + paclitaxel 175 mg/m2, all patients): more than 200%
percent increase in Hsp70 concentrations (Hsp70 [2]; 350 mg/m2 Compound (1) + paclitaxel 175 mg/m2, two patients): ≤ 500%
percent increase in Hsp70 concentrations (Hsp70 [2]; 438 mg/m2 Compound (1) + paclitaxel 175 mg/m2, another patient): ≤ 500%
Hsp70 concentrations, change (Hsp70 [2]; 438 mg/m2 Compound (1) + paclitaxel 175 mg/m2, two patients): roughly doubled
induction of Hsp70 protein in plasma, dose dependence (Hsp70 [2]; combined with paclitaxel): dose dependent
half-life (in vivo; female, SW, mouse, in vivo, po, 100 mg/kg): 2.3 h
patients with evaluable samples showing increased NK cell activity (K562/eGFP; assayed 7 days after the second dose, with carboplatin and paclitaxel): Seven of the 8
% tumor cell lysis post-dose (K562/eGFP; per subject, Effector/Target 80:1, dose cells empty (subjects 9-11)): 3.8% and 45.98%
plasma levels of Hsp70 (Hsp70 [3]): increase

per os AUC as % of the intravenous value at 4 hours (in vivo; per os 100 mg/kg formulation B vs intravenous 25 mg/kg formulation A, AUC 0-4 hours): about 30%
SMILES: COc1ccc(OC)c(C(=S)N(C)NC(=O)C(C)C(=O)NN(C)C(=S)c2cc(OC)ccc2OC)c1 [Compound (9)]

Kp at 30 min ([4]; brain, intravenous, 25 mg/kg, read-out: brain concentration as % of plasma concentration): 0.19
Kp at 30 min ([4]; brain, iv, first experiment, 25 mg/kg intravenously, 30 min after injection, read-out: brain concentration as % of the plasma concentration): ~0.07
concentration at 30 min ([4]; brain, iv, first experiment, 25 mg/kg intravenously, 30 min after injection, read-out: concentration in brain): ~2 µM
concentration at 30 min ([4]; kidney, iv, first experiment, 25 mg/kg intravenously, 30 min after injection, read-out: concentration in kidney): 50 µM
concentration at 30 min ([4]; liver, iv, first experiment, 25 mg/kg intravenously, 30 min after injection, read-out: concentration in liver): 33 µM
concentration at 30 min ([4]; spleen, iv, first experiment, 25 mg/kg intravenously, 30 min after injection, read-out: concentration in spleen): 25 µM
SMILES: CN(NC(=O)CC(=O)NN(C)C(=S)C1CC1)C(=S)C1CC1 [Compound (18)]

paclitaxel Vss, dependence on the Compound (1) dose [5]: increase
paclitaxel terminal phase half-life, dependence on the Compound (1) dose [5]: without affecting
SMILES: CC(=O)O[C@H]1C(=O)[C@@]2(C)[C@H]([C@H](OC(=O)c3ccccc3)[C@]3(O)C[C@H](OC(=O)[C@H](O)[C@@H](NC(=O)c4ccccc4)c4ccccc4)C(C)=C1C3(C)C)[C@]1(OC(C)=O)CO[C@@H]1C[C@@H]2O [Paclitaxel, paclitaxel]
paclitaxel clearance, dependence on the Compound (1) dose [5]: significant trend toward decreasing clearance
dose limiting toxicities [6]: neutropenia, arthralgia, and febrile neutropenia with mucositis
